The values that follow come from US10227349B2, “Pyrazolo[1,5-a]pyrimidine compound” (Eisai R&D Management Co., Ltd., priority 2016, dated 2019).

In experiment [1] the target is T1, PAR2 (Mus musculus, UniProt P55086).
T1 construct: orally administered to C57BL/6J male mice (Charles River), 6-10 weeks of age; tissue Charles River; host or cells: Living C57BL/6J male mice (in vivo; saliva secretion)
T1 sequence (P55086 26-399): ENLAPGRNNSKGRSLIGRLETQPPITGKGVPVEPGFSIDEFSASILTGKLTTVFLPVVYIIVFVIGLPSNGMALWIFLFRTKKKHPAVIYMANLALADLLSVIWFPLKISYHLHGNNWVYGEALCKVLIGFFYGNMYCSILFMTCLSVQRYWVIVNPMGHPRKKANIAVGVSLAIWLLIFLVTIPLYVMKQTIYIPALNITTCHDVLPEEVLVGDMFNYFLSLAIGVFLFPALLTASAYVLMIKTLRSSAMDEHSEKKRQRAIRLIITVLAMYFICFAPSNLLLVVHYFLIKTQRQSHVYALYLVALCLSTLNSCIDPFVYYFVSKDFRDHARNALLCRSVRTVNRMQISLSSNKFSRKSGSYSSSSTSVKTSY
In words: Measurement of PAR2 agonist (SLIGRL-NH2)-induced salivation in mouse. To be noted: C57BL/6J male mice, 0.3 mg/mL solution 10 mL/kg orally, 60 min before SLIGRL-NH2 i.p., saliva collected 10 min. Format: in vivo. How it is done: The test compound was added to a 0.5% carboxymethyl cellulose solution to which 2% DMSO was added, so as to have the final concentration of 0.3 mg/mL, thereby preparing an administration solution containing the test compound. The administration solution containing the test compound (10 mL/kg) was orally administered to C57BL/6J male mice (Charles River), 6-10 weeks of age, using an oral sonde and a syringe. Forty-five minutes after the administration of the test compound, 10 mL/kg of a 20% (w/v) urethane solution was intraperitoneal administered to the mice which were then anesthetized. Sixty minutes after the administration of the test compound, 10 mL/kg of a 0.1 mg/mL SLIGRL-NH2 (SEQ ID NO: 2) solution was intraperitoneally administered as the PAR2 agonist and a cotton ball was immediately placed in the oral cavity of the mouse to collect the saliva. Ten minutes after the administration of the PAR2 agonist, the cotton ball was removed and weighed to measure the amount of saliva secreted.
Note that Reference Example 1 in Table 4 is Compound (XIX). Additionally, Comparative Compound in Table 4 is Compound (XX).

Experiment [2] concerns OXA-induced enteritis in BALB/c male mice. Kind of experiment: Model mouse for enteritis (OXA-induced, bowel length). Format: in vivo. To be noted: po, 48 h, 0.1 mg/mL solution 10 mL/kg orally twice (1 hour before and day after OXA induction), length of colon and rectum two days after induction, read-out: Inhibitory activity on bowel shortening (%). How it is done: Generally, the bowel length is known to be shorter during enteritis (Maxwell, J. R. et al. Curr. Protoc. Pharmacol. Chapter 5: Unit 5.58, 2009). The bowel length in an enteritis model was measured to evaluate the effect of the test compound.
The test compound was added to a 0.5% carboxymethyl cellulose solution so as to have a final concentration of 0.1 mg/mL, thereby preparing an administration solution containing the test compound. Hapten used was 4-ethoxymethylene-2-phenyloxazol-5-one (OXA, SIGMA-ALDRICH).
One hundred (100) μL of a solution of OXA diluted to 0.3% with ethanol was applied to the shaved abdominal region of BALB/c male mice (Charles River), 6-10 weeks of age, to create the sensitization. Five days after the sensitization, OXA was intrarectally administered to induce an enteritis reaction. More specifically, a syringe equipped with a sonde for oral administration was inserted into the anus of the mouse anesthetized by the inhalation of isoflurane at a concentration of 4-5% and 50 μL of the OXA solution adjusted to 1% with a solvent of 50% ethanol/50% distilled water was administered into the rectum.
One hour before and on the day following the induction of enteritis, the administration solution containing the test compound (10 mL/kg) was orally administered twice in total to the mice. Two days after the induction of enteritis, the mice were euthanized by cervical dislocation and subsequently the cecum to the anus was collected to measure the combined length of the colon and the rectum using a ruler, thereby evaluating the action of the test compound.
Note that Reference Example 1 in Table 6 is Compound (XIX).

Experiment [3] concerns the target T2, PAR2 (Homo sapiens, UniProt P55085).
T2 construct: Human embryonic kidney cell line HEK293 cells cultured using DMEM culture medium; endogenous in cells; host or cells: HEK293
T2 sequence (P55085 26-397): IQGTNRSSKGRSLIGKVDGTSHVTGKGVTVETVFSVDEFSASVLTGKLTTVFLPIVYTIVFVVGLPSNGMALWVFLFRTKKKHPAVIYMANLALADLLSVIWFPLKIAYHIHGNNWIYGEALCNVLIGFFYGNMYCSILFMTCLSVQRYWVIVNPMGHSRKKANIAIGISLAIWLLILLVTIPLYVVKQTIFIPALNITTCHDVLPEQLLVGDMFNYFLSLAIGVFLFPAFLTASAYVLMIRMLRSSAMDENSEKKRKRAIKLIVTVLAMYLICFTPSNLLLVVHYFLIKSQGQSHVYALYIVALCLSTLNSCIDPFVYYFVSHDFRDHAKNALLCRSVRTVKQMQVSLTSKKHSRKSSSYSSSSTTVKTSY
In words: Intracellular calcium concentration measurement (trypsin-induced calcium elevation, FDSS6000). The settings on record: HEK293 cells, trypsin 5 U/mL as agonist, test compound added 30 min before measurement; read-out: Inhibitory activity on intracellular calcium elevation (IC50 (nM)). Format: cell-based. From the text: In the present specification, examples of the measurement method for the PAR2 inhibitory activity include measurement method for a concentration elevation of intracellular calcium; measurement method for a production increase of intracellular inositol trisphosphate; measurement method for an increase in intracellular protein phosphorylation by protein kinase C and MAP kinase; and measurement method for a production amount or a release amount of inflammation-related physiologically active substances such as cytokine, chemokine, prostaglandin and nitric monoxide. Examples of the measurement method for an elevation of intracellular calcium concentration include a method wherein a calcium-binding fluorescent probe is allowed to be incorporated in advance into a cultured cell line or an animal-derived isolated cell having PAR2, or a cell in which PAR2 is artificially expressed, a protease having the PAR2 activity function such as trypsin or a PAR2 agonist (synthetic peptides such as SLIGKV-NH2 (SEQ ID NO: 1) and SLIGRL-NH2 (SEQ ID NO: 2) is added to activate PAR2 whereby fluctuating intracellular calcium concentrations are detected as changes in the fluorescent signal. Alternatively, it is also possible to measure an intracellular calcium concentration by determining the quantity of a fluorescence intensity produced in proportion to the calcium concentration using a calcium-binding luminescent protein overexpressing cell line such as Aequorin. Specifically, examples include the methods described in Test Examples of the present specification.
Human embryonic kidney cell line HEK293 cells cultured using DMEM culture medium (Invitrogen) with 3% fetal bovine serum (3% FBS)-added was prepared to have a concentration of 2×10^5 cells/mL, and plated in a type I collagen-coated 384-well black plate (clear bottom) (Greiner) so as to be 25 μL/well and cultured in a CO2 incubator overnight. FLIPR Calcium Assay Kit (Molecular Devices) prepared with Hanks-20 mM Hepes buffer (pH 7.4) was added to the cells so as to be 25 μL/well and cultured in the CO2 incubator for 1 hour. Trypsin (SIGMA-ALDRICH, catalog number: T8816, Enzyme Commission Number 3.4.21.4) prepared so as to be 5 U/mL as final concentration (BAEE unit) with Hanks-20 mM Hepes buffer (pH 7.4) was added to a 384-well deep well polypropylene plate (Greiner) to be an agonist reagent plate. Thirty minutes before the measurement using FDSS6000 (Hamamatsu Photonics K.K.), a test compound prepared with Hanks-20 mM Hepes buffer (pH 7.4) was added to the cell so as to be 8 μL/well. The cell plate to which the test compound was added and the reagent plate were set on FDSS6000, 22 μL/well of the agonist solution was added from the reagent plate, and the change in intracellular calcium concentration was measured with a CCD camera. The measurement was carried out at 37° C. for 120 seconds and the addition of reagent from the reagent plate to the cell plate was carried out using a built-in 384-well automatic dispenser of FDSS6000.
Note that Reference Example 1 in Table 3 is the compound represented by formula (XIX) synthesized in the above Reference Example 1 (hereinafter, also referred to as Compound (XIX)). Additionally, the “Comparative Compound” in Table 3 is the compound described in Patent Literature 4 represented by the following formula (XX) (I-343; hereinafter, also referred to as Compound (XX)).

Consider `COc1cccc(C)c1N(C)c1cc(-c2cc(F)c(F)c(F)c2)nc2cc(C(=O)N3CC[C@@H](CC(=O)O)[C@@H](OC)C3)nn12` (relative stereo) [Example 6, 2-((3R*,4S*)-3-methoxy-1-(7-((2-methoxy-6-methylphenyl)(methyl)amino)-5-(3,4,5-trifluorophenyl)pyrazolo[1,5-a]pyrimidine-2-carbonyl)piperidin-4-yl)acetic acid], for which the “Inhibitory activity on the PAR2-dependent saliva secretion (%)” value in experiment [1] is 97.0%. Besides, the inhibition in vivo at 100 µg/mL, 1 mg/kg in experiment [2] came out at 79.6%. Moreover, the IC50 (in general, the concentration at which inhibition is half-maximal) in experiment [3] is 2.79 nM.
The like results for `Cc1cccc(C)c1N(C)c1cc(-c2cc(F)c(F)c(F)c2)nc2cc(C(=O)N3CC[C@@H](CC(=O)O)[C@@H](F)C3)nn12` (relative stereo) [Example 1, 2-((3R*,4S*)-1-(7-((2,6-dimethylphenyl)(methyl)amino)-5-(3,4,5-trifluorophenyl)pyrazolo[1,5-a]pyrimidine-2-carbonyl)-3-fluoropiperidin-4-yl)acetic acid] were, in that order, 91.5%, 60.4% and 2.57 nM.
The like results for `CC(C)CN(c1cc(-c2cc(F)c(F)c(F)c2)nc2cc(C(=O)N3C[C@@H]4[C@@H](CC(=O)O)[C@@H]4C3)nn12)[C@@H](C)c1ccccc1` [Example 16, 2-((1α,5α,6α)-3-(7-(isobutyl((S)-1-phenylethyl)amino)-5-(3,4,5-trifluorophenyl)pyrazolo[1,5-a]pyrimidine-2-carbonyl)-3-azabicyclo[3.1.0]hexan-6-yl)acetic acid] were, in that order, 98.2%, 74.5% and 26.3 nM.
The matching figures for `CN(c1c(F)cccc1Cl)c1cc(-c2cc(F)c(F)c(F)c2)nc2cc(C(=O)N3CC[C@@H](CC(=O)O)[C@@H](F)C3)nn12` (relative stereo) [Example 13, 2-((3R*,4S*)-1-(7-((2-chloro-6-fluorophenyl)(methyl)amino)-5-(3,4,5-trifluorophenyl)pyrazolo[1,5-a]pyrimidine-2-carbonyl)-3-fluoropiperidin-4-yl)acetic acid]: 95.0%, 62.2% and 4 nM.
On to `COc1cccc(C)c1N(C)c1cc(-c2cc(F)c(F)c(F)c2)nc2cc(C(=O)N3CC[C@@H](CC(=O)O)[C@@H](F)C3)nn12` (relative stereo) [Example 5, 2-((3R*,4S*)-3-fluoro-1-(7-((2-methoxy-6-methylphenyl)(methyl)amino)-5-(3,4,5-trifluorophenyl)pyrazolo[1,5-a]pyrimidine-2-carbonyl)piperidin-4-yl)acetic acid], for which the “Inhibitory activity on the PAR2-dependent saliva secretion (%)” value in experiment [1] came out at 94.5%. Also, in experiment [2], the inhibition in vivo at 100 µg/mL, 1 mg/kg amounted to 106%. Further, in experiment [3], the IC50 amounted to 2.45 nM.
The matching figures for `CO[C@H]1CN(C(=O)c2cc3nc(-c4cc(F)c(F)c(F)c4)cc(N(C)c4c(C)cccc4C)n3n2)CC[C@H]1CC(=O)O` (relative stereo) [Example 2, 2-((3R*,4S*)-1-(7-((2,6-dimethylphenyl)(methyl)amino)-5-(3,4,5-trifluorophenyl)pyrazolo[1,5-a]pyrimidine-2-carbonyl)-3-methoxypiperidin-4-yl)acetic acid]: 91.3%, 69.7% and 7.54 nM.
